How the values were obtained:
mouse [1] = test: Action on the rectal temperature of the mouse (pGlu-His-dopamine); type: in vivo
Method: (§1) The different tests which are carried out on mice by the known techniques comprise:
the action on the rectal temperature of the mouse,
(1) Action on the rectal temperature

mouse [2] = test: Anti-reserpine action (interaction with reserpine); type: in vivo
Method: as §1
the anti-reserpine action,
(2) Interaction with reserpine

mouse [3] = test: Potentialisation of the group toxicity to amphetamine; type: in vivo
Method: as §1
the potentialisation of the group toxicity to amphetamine,
(3) Group toxicity in respect of amphetamine

mouse [4] = test: Jumping effects with L-DOPA in mice which have received d-amphetamine; type: in vivo; settings: for jumping effects (in words): counted for 90 minutes, L-DOPA 100 mg/kg intraperitoneally
Method: as §1
the jerking movements with L-DOPA.
(4) Jumping effects with L-DOPA

rat = test: Induction of stereotype movements in the rat; type: in vivo
Method: induction of stereotypes in the rat,
(§2) A comparison of these three substances, pGlu-Amph, pGlu-His-Amph and pGlu-His-Pro-Amph, with amphetamine, has been able to be carried out as follows; for this purpose, the products were administered systematically by intraperitoneal route and by oral route, it being possible for this latter procedure to verify the generally admitted assertion of a gastric hydrolysis of peptides; in this case, the action of the amphetamine should be integrally re-established.
B--Induction of stereotype movements

mouse [5] = test: Study of the toxicity in the mouse; type: in vivo
Method: study of the toxicity in the mouse.
as §2

[6] = Potentialisation of the toxicity of amphetamine by TRH; type: in vivo
mouse [7] = test: Action on the rectal temperature in the mouse (amphetamic pseudopeptides); type: in vivo; settings: for dose causing a hypothermia 30 minutes after injection: small doses
Method: action on the rectal temperature in the mouse.
as §2
A--Action on the rectal temperature in respect of the mouse

serotonin = settings: 4-nitro-amphetamine: in 4 hours, still perceptive two weeks later; cited from earlier work
tryptophane hydroxylase = settings: 4-nitro-amphetamine: in 4 hours, still perceptive two weeks later; cited from earlier work
[8] = in vivo
[9] = intraperitoneal route, 400 mg/kg
[10] = intraperitoneal route, 600 mg/kg

N[C@@H](Cc1ccc(O)c(O)c1)C(=O)O [L-DOPA]
action on the rectal temperature (in words) (mouse [1]): hypothermia
action on the effects of reserpine (temperature, ptosis) (mouse [2]; 400 mg/kg intraperitoneally): antagonises the effects of the reserpine on the temperature and the dropping of the eyelids
action on the effects of reserpine (mouse [2]; oral administration, same dosage (400 mg/kg)): not found
behavioural effect in amphetamine group toxicity test (in words) (mouse [3]): extreme agitation
jumping effects (in words) (mouse [4]): numerous jumping actions

CC(N)Cc1ccccc1 (centres unmarked) [amphetamine, reference compound]
dosage at which the maximum amplitude of stereotype movements is achieved (rat; intraperitoneal route): 10 mg/kg
induction of stereotype movements (in words) (rat; intraperitoneal route): causes stereotype movements
duration of the stereotype movements (rat; intraperitoneal route, 10 mg/kg): ≤ 5 h
induction of stereotype movements (in words) (rat; oral route): less significant intensity and of slightly longer duration than by the intraperitoneal route
signs observed with toxic dosages (mouse [5]; intraperitoneal route): general syndrome of excitation
LD50 of amphetamine ([6]; amphetamine alone): 17.8 mg/kg
LD50 of amphetamine ([6]; with TRH at 25 mg/kg by subcutaneous application): 5.7 mg/kg
dose from which a hyperthermia appears (mouse [7]; intraperitoneal route): ≥ 4 mg/kg
time after which the temperature of the treated animals is again that of the controls (mouse [7]; intraperitoneal route): 2 h
time of the maximum of the hyperthermia (mouse [7]; intraperitoneal route): 30 min
dose causing a hypothermia 30 minutes after injection (mouse [7]; intraperitoneal route): 1 mg/kg
action on the rectal temperature (in words) (mouse [7]; oral route): substantially the same as when applied intraperitoneally
dose still causing a hypothermia (mouse [7]; oral route): 4 mg/kg

NCCc1ccc(O)c(O)c1 [Dopamine, dopamine]
action on the rectal temperature (in words) (mouse [1]): hypothermal action, but the amplitude thereof is much smaller
effect on the reserpine fall in temperature (mouse [2]): small effect
effect on reserpine ptosis (mouse [2]; effect not lasting): completely counteracts ptosis
time after the injection of amphetamine at which the effect is developed (mouse [3]): about 20 minutes
jumping effects (in words) (mouse [4]): no jumping effects are produced

pGlu--His--Amph [pGlu-His-Amph]
duration of action in the stereotyped movements test versus amphetamine (summary) (rat; in vivo): much longer lasting action
dosage of contained amphetamine versus dosage of amphetamine causing an equal intensity of stereotypes (rat; intraperitoneal route): three times greater
induction of stereotype movements (in words) (rat; intraperitoneal route): also causes stereotypes
duration of the stereotype movements (rat; intraperitoneal route, strongest dosage): exceeds 7 hours
duration of the stereotyped movements (rat; oral route): 271/2
induction of stereotype movements (in words) (rat; oral route): much greater effect as regards intensity and duration than when applied intraperitoneally
time the action takes to appear (rat; oral route): about 3 hours
toxicity versus amphetamine (summary) (mouse [5]; in vivo): less than that of amphetamine
mortality (mouse [5]; [9]): 10%
time after which agitation is established (mouse [5]; [9]): 30 min
dead mice (mouse [5]; [10]): 6 mice out of 10
time to death (mouse [5]; [10]): less than 30 minutes
time to death (mouse [5]; intraperitoneal route, 800 mg/kg): less than 3 min
duration of stereotypic movements observed in the toxicity study (mouse [5]; oral route): more than 24 hours
mice dead (mouse [5]; oral route, 2400 mg/kg): 50%
immediate death (mouse [5]; oral route, even with 2400 mg/kg): no longer observed
time of the maximum of the hypothermia (mouse [7]; intraperitoneal administration): 1 h
action on the rectal temperature (in words) (mouse [7]; intraperitoneal route): always produces a hypothermia
dose from which a hyperthermia appears (mouse [7]; intraperitoneal route): above 50 mg/kg
time of the maximum of the hyperthermia (mouse [7]; intraperitoneal route): approximately 3 hours
action on the rectal temperature (in words) (mouse [7]; oral route): always causes a hypothermia followed by a hyperthermia proportional to the administered dose
time of the maximum of the hypothermia (mouse [7]; oral route): 2 h

CC(Cc1ccccc1)NC(=O)C1CCC(=O)N1 (centres unmarked) [pGlu-Amph, pGlu--Amph]
induction of stereotype movements (in words) (rat; intraperitoneal route): completely identical with that of amphetamine
effect versus that produced by the equivalent amphetamine dose (rat; intraperitoneal route, dose transformed into contained amphetamine): almost identical or is slightly smaller
doses versus doses of amphetamine producing a similar/equivalent effect (rat; oral route): practically equivalent
dosage causing mortality of 50% (LD50) (mouse [5]; intraperitoneal route): about 40 mg/kg
signs observed with toxic dosages (mouse [5]; intraperitoneal route): general syndrome of excitation
mortality (in words) (mouse [5]; oral route, 30 mg/kg): does not cause any death
mortality (mouse [5]; oral route, 100 mg/kg): 100%
action on the rectal temperature (in words) (mouse [7]; intraperitoneal route): very close to that of amphetamine
dose from which a hyperthermia appears (mouse [7]; intraperitoneal route): ≥ 10 mg/kg
period of the action compared with amphetamine (mouse [7]; intraperitoneal route): the same
time of the maximum of the hyperthermia (mouse [7]; intraperitoneal route): 60 min
dose causing a hypothermia 30 minutes after injection (mouse [7]; intraperitoneal route): 5 mg/kg
action on the rectal temperature (in words) (mouse [7]; oral route): modelled on that of the amphetamine

CC(N)Cc1ccc(N)cc1 (centres unmarked) [4-amino-amphetamine, p-amino-amphetamine]
effect on the amount of serotonin (serotonin): increase in the amount of serotonin
effect on the activity of the tryptophane hydroxylase (tryptophane hydroxylase): not modified to any appreciable degree

pGlu--His--DA [pGlu-His-dopamine]
action on the rectal temperature (in words) (mouse [1]): highly significant hypothermia
time of occurrence of the hypothermia (mouse [1]; relatively high dosage): 15 min
action on the effects of reserpine (temperature, ptosis) (mouse [2]; 400 mg/kg intraperitoneally): slightly counteracts simultaneously the ptosis and the fall in temperature
duration of the anti-reserpine action (mouse [2]; 400 mg/kg intraperitoneally): less than 11/2
behavioural effect in amphetamine group toxicity test (in words) (mouse [3]): identical with those of dopamine
time of onset of the antioxotremorine action [8]: 15 min
delay in the occurrence of the jumping effects versus L-DOPA (mouse [4]): greater
total number of jumps recorded versus L-DOPA (mouse [4]): smaller than that with L-DOPA
jumping effects (in words) (mouse [4]): the same as with L-DOPA

CC(Cc1ccccc1)NC(=O)[C@@H]1CCCN1C(=O)[C@H](Cc1c[nH]cn1)NC(=O)[C@@H]1CCC(=O)N1 (stereo partly drawn) [pGlu-His-Pro-Amph, pGlu--His--Pro--Amph]
mortality (mouse [5]; oral route, 1000 mg/kg): 25%
time to death (mouse [5]; oral route, 1000 mg/kg): 48 h

NC(=O)[C@@H]1CCCN1C(=O)[C@H](Cc1cnc[nH]1)NC(=O)[C@@H]1CCC(=O)N1 [TRH, pGlu-His-Pro-NH2]
effect on the toxicity of amphetamine ([6]; 25 mg/kg, subcutaneous application): potentialises the toxicity of the amphetamine

CC(N)Cc1ccc([N+](=O)[O-])cc1 (centres unmarked) [4-nitro-amphetamine, p-nitro-amphetamine]
effect on the amount of serotonin (serotonin): depletion of serotonin
effect on the activity of the tryptophane hydroxylase (tryptophane hydroxylase): decrease in the activity of the tryptophane hydroxylase
